The subject of assay [1] is human prostate tissues. Briefly: organ bath, noradrenaline-induced contractions of human prostate strips. The conditions noted are these: Homo sapiens, 100 μM noradrenaline. How it is done:
Human prostate tissues were obtained from patients undergoing radical prostatectomy for prostate cancer (n=107). Patients who underwent previous transurethral resection of the prostate (TURP) were excluded. This study was carried out in accordance with the Declaration of Helsinki of the World Medical Association, and has been approved by the ethics committee of the Ludwig-Maximilians University, Munich, Germany (Ethikkommission bei der LMU Munchen, approval number 19-737). Informed consent was obtained from all patients. According to the ethical approval, samples and data were collected and analyzed anonymously, so that no data on patients' characteristics were stored. Samples were taken immediately after prostatectomy, following macroscopical examination by an uro-pathologist. All tissues were taken from the periurethral zone, considering that most prostate cancers arise in the peripheral zone (Pradidarcheep et al., 2011; Shaikhibrahim et al., 2012). […] BPH is present in 80-83% of patients with prostate cancer (Alcaraz et al., 2009; Orsted and Bojesen, 2013). Typically, such tissues show varying content of prostate-specific antigen (PSA), and different contents of smooth muscle and glandular epithelia, reflecting that BPH is present to different degree (Wang et al., 2016a, 2016c). For macroscopic examination and sampling, the prostate was opened by a single longitudinal cut from the capsule to the urethra. Subsequently, both intersections were checked macroscopically for any obvious tumor infiltration. Because tumors are usually located to the peripheral zone, tumor infiltration in the periurethral zone (where sampling was performed) was very rare (found in less than 1% of prostates). Prostates showing tumors in the periurethral zone in macroscopic inspection were not subjected to sampling and were not included in this study. Organ bath studies were performed immediately after sampling, while samples for molecular analyses were shock frozen in liquid nitrogen and stored at −80° C.
Prostate strips (6×3×3 mm) were mounted in 10 ml aerated (95% 02 and 5% CO2) tissue baths (Danish Myotechnology, Aarhus, Denmark), containing Krebs-Henseleit solution (37° C., pH 7.4) with following composition: 118 mM NaCl, 4.7 mM KCl, 2.55 mM CaCl2), 1.2 mM KH2PO4, 1.2 mM MgSO4, 25 mM NaHCO3, 7.5 mM glucose. In each single experiment, two from four strips obtained from the same prostate were allocated to the control group (without inhibitor or antagonist), and two others to the inhibitor/antagonist group (resulting in duplicate determination for each group in each single experiment). All four samples of one experiment were examined in four chambers of the same organ bath. Consequently, control and inhibitor curves in each series/diagram were obtained from the same prostates, but different prostates were examined for different series/diagrams. […] Only one curve was recorded with each sample, i. e. for one agonist, or for electric field stimulation (EFS).
After mounting in organ bath chambers, preparations were stretched to 4.9 mN and left to equilibrate for 45 min. […] After the equilibration period, maximum contraction induced by 80 mM KCl was assessed. […]

The subject of assay [2] is human prostate tissues. Description: organ bath, EFS-induced (neurogenic) contractions of human prostate strips. To be noted: 32 Hz. From the text: Patients who underwent previous transurethral resection of the prostate (TURP) were excluded. […] Informed consent was obtained from all patients. According to the ethical approval, samples and data were collected and analyzed anonymously, so that no data on patients' characteristics were stored. Samples were taken immediately after prostatectomy, following macroscopical examination by an uro-pathologist. […] For macroscopic examination and sampling, the prostate was opened by a single longitudinal cut from the capsule to the urethra. Subsequently, both intersections were checked macroscopically for any obvious tumor infiltration. […] Prostates showing tumors in the periurethral zone in macroscopic inspection were not subjected to sampling and were not included in this study. Organ bath studies were performed immediately after sampling, while samples for molecular analyses were shock frozen in liquid nitrogen and stored at −80° C.
In each single experiment, two from four strips obtained from the same prostate were allocated to the control group (without inhibitor or antagonist), and two others to the inhibitor/antagonist group (resulting in duplicate determination for each group in each single experiment). All four samples of one experiment were examined in four chambers of the same organ bath. Consequently, control and inhibitor curves in each series/diagram were obtained from the same prostates, but different prostates were examined for different series/diagrams. […] Therefore, and considering that prostate tissues from radical prostatectomy may show considerable heterogeneity, statistical comparisons were only performed between groups within the same series (i. e. containing tissues from the same prostates for inhibitor and control group), but not between series obtained from different prostates (i. e., not across different series of organ bath experiments). Only one curve was recorded with each sample, i. e. for one agonist, or for electric field stimulation (EFS).
Subsequently, chambers were washed three times with Krebs-Henseleit solution for a total of 30 min.
Application of EFS simulates action potentials, resulting in the release of endogenous neurotransmitters, including noradrenaline. […] For EFS, tissue strips were placed between two parallel platinum electrodes connected to a CS4 stimulator (Danish Myotechnology). […] EFS-induced contractile responses were studied at frequencies of 2, 4, 8, 16, and 32 Hz, with train intervals of 30 s between stimulations.
Data analyses and calculations were based on maximum peak heights of contractions. For calculation of agonist- or EFS-induced contractions, tensions were expressed as % of KCl-induced contractions, as this may correct different stromal/epithelial ratios, different smooth muscle content, varying degree of BPH, or any other heterogeneity between prostate samples and patients.

Assay [3] relates to human prostate tissues. To be noted: Hennenberg et al., 2018; cited from earlier work.

The source of these data is patent US20220143021A1 (Cardiff Oncology, Inc., priority 2019, published 2022).

SMILES strings stand for the structures. Several values for one entry are separate records, joined by “and”; a condition that tells them apart may be missing. Equal values may be shown once.

For orientation: inhibition means how much of the control response was suppressed. Low values mean a weak effect, high ones a strong effect.

As for `CCOc1ccccc1OCCN[C@H](C)Cc1ccc(OC)c(S(N)(=O)=O)c1` [tamsulosin, 5-[(2 R)-2-[2-(2-ethoxyphenoxy)ethylamino]propyl]-2-methoxybenzenesulfonamide, reference compound], the inhibition at 0.3 µM in the assay with human prostate tissues [1] (300 nM tamsulosin) was 93 ± 3.5%; in the assay with human prostate tissues [2] (Homo sapiens, 300 nM tamsulosin) it was 48%. Also, the “inhibition of EFS-induced contraction by add-on of tamsulosin, compared to onvansertib alone” value in the assay on human prostate tissues [2] (tamsulosin 300 nM combined with onvansertib 100 nM) was 68% and 68±12.2%.
Consider `COc1ccc(CCNCc2ccc(OCc3ccc(Cl)nc3)c(OC)c2)cc1OC` [SBE 13], for which the “effect on endothelin-1-induced contractions of human prostate tissues” value with human prostate tissues [3] is given as “did not change”.
`C[C@H](Cc1cc2c(c(C(N)=O)c1)N(CCCO)CC2)NCCOc1ccccc1OCC(F)(F)F` [silodosin, 1-(3-hydroxypropyl)-5-[(2 R)-2-[2-[2-(2,2,2-trifluoroethoxy)phenoxy]ethylamino]propyl]-2,3-dihydroindole-7-carboxamide, reference compound]: the inhibition at 0.1 µM was 84 ± 4.99% with human prostate tissues [1] (100 nM silodosin) and 47% with human prostate tissues [2] (Homo sapiens, 100 nM silodosin). In addition, in the assay with human prostate tissues [2] (silodosin 100 nM combined with onvansertib 100 nM), the “inhibition of EFS-induced contraction by add-on of silodosin, compared to onvansertib alone” value is 68% and 68±12.7%.
Regarding `NC(=O)c1sc2c([N+](=O)[O-])cc(C(F)(F)F)cc2[n+]1[O-]` [cyclapolin], the “effect on endothelin-1-induced contractions of human prostate tissues” value in the assay with human prostate tissues [3] is given as “did not change”.
